Reference: US20210100868A1, “COMPOSITIONS AND METHODS FOR TREATING OR PREVENTING GASTROINTESTINAL DAMAGE ASSOCIATED WITH NSAID THERAPY” (NORTH CAROLINA STATE UNIVERSITY, priority 2018, published 2021)
Where no end group is shown, it is not given here.

Assays:
tight junction = assay: Tight junction regulator activity of larazotide fragments; settings: for Activity of full length larazotide when mixed with the two fragments: GVLVQPG and VLVQPG mixed with full length larazotide; for Activity as tight junction regulators: fragment alone
[1] = system: ischemic-injured porcine jejunum; assay: Recovery of barrier function (transepithelial electrical resistance) in ischemic-injured porcine jejunum in Ussing chambers, with indomethacin; format: cell-based, Yorkshire-cross pigs; settings: FIG. 1
From the text: In order to determine whether Larazotide could function as a therapeutic agent that could stimulate intestinal tissue repair in the presence of a non-steroidal anti-inflammatory drug (NSAID), recovery of barrier function in ischemic-injured porcine jejunum was monitored in the presence of the NSAID indomethacin.
Specifically, Yorkshire-cross pigs of 6-8 weeks of age were anesthetized, followed by midline laparotomy and creation of a series of 10 cm intestinal loops commencing proximal to the ileum by ligating the intestinal lumen.
The local mesenteric vasculature was ligated to select treatment loops for a period of 45 minutes. Other loops were left as non-ischemic controls. The loops were subsequently resected, and the mucosal tissues were stripped in oxygenated (95% O2/5 % CO2) rings from the muscle layers in preparation of ex vivo incubation in Ussing chambers.
Select tissues (n=8) were pre-treated with indomethacin (5 μM) on both sides of the tissue, prior to receiving 0.1-10 μM Larazotide on the luminal surface after 30 minutes of incubation in the Ussing chambers.
Transepithelial electrical resistance (TER) was monitored in the tissues for 240 minutes.

[2] = clinical trials, cited from earlier work

Row | Compound | Activity of full length larazotide when mixed with the two fragments (tight junction) | Activity as tight junction regulators (tight junction) | other results
1 | VLVQPG [larazotide-derived fragment missing N-terminal glycine residues] | activity is completely abolished | largely inactive | 
2 | GGVLVQPG [Larazotide] |  |  | Transepithelial electrical resistance (TER) ([1]; 1 μM larazotide on luminal surface, in the presence of indomethacin (5 μM), monitored for 240 minutes): increased TER; Clinical activity at higher doses ([2]; higher doses (e.g., 1 mg and 2 mg doses)): attenuation of activity, or no activity at all; Clinical benefit on intestinal disease symptoms ([2]; lower doses (e.g., 0.5 mg dose)): benefit at reducing intestinal disease symptoms
3 | GVLVQPG [larazotide-derived fragment missing an N-terminal glycine residue] | activity is completely abolished | largely inactive | 
4 | COc1ccc2c(c1)c(CC(=O)O)c(C)n2C(=O)c1ccc(Cl)cc1 [indomethacin] |  |  | Transepithelial electrical resistance (TER) ([1]; indomethacin applied without larazotide): decline in TER
